# Patent publication US20260335279A1, “METHODS OF TREATING ISCHEMIA-REPERFUSION INJURIES” (University of Cincinnati, priority 2022, published 2026)
# Experiments:
# KLF5 = KLF5 protein expression (Western blot) in cardiac tissue, I/R mice; format: in vivo, mouse (C57BL/6); details: 30 minutes of ischemia; ML264 25 mg/kg/12 h intraperitoneal
# Method: (§1) The myocardial ischemia/reperfusion surgical protocol was applied as follows. Mice were anesthetized with 2% isoflurane inhalation until anesthesia was achieved. The animals' body temperature was maintained at 37 °C throughout the surgical procedure using a heating pad. A tracheal tube was placed via tracheal intubation and the respiration rate was set at 150 strokes/min with a tidal volume of 200 μL, using Minivent ventilator for mice (Model 845, Harvard Apparatus). A 1.2 cm incision was made over the left chest. After retraction of the pectoral major and minor muscles, the fourth intercostal space was exposed. […] The left anterior descending coronary artery (LAD) was then located, sutured, and ligated at a site 3-4 mm distal to the origin of the artery under the left atrium using a 6-0 silk suture. The heart was allowed to stabilize for 15 min and right after, ischemia was induced by tightening the suture against a small piece of polyethylene tube. […] The mouse was then monitored during the recovery period, which was generally completed within 3 to 5 minutes. […]
# Isolated myocardial tissue/isolated primary murine cardiomyocytes were homogenized in radioimmunoprecipitation assay buffer (RIPA buffer) containing protease and phosphatase inhibitors (Thermo Fischer Scientific, Cat. No.: A32959). […] Relative densitometry was determined, and the β-actin protein was used as a loading control. […]
# [1] = test system: myocardial ischemia-reperfusion injury in mice; assay: Speckle tracking echocardiography in murine myocardial ischemia-reperfusion injury; format: in vivo, mouse (C57BL/6); details: 30 min ischemia, 24 h reperfusion; 25 mg/kg/12 h intraperitoneal; vs vehicle
# Method: Cardiac function was assessed by transthoracic echocardiography using the VisualSonics Vevo F2 system (VisualSonics, Toronto, ON). Sedation was induced by 3% isoflurane and maintained at 0.5% isoflurane during the procedure, during which the animals were placed on a heated table under a lamp at approximately 37 °C. Parasternal long axis (PSLAX) and short axis (SAX) images were recorded and then analyzed on a separate workstation with VevoLab software (Vevo 2100, v1.6, Visualsonic, Toronto, Canada). From the M-mode images, left ventricular cavity size for systole and diastole (LV dia;s, LV dia;d, LV Vol;s and LV Vol;d) were measured. Heart rate (HR), stroke volume (SV), and the echocardiographic calculation for fractional shortening (FS), ejection fraction (EF) and cardiac output (CO) were obtained using the Vevo software. Treatment and control groups were analyzed on the same day by the same technician in order to minimize variation. For VevoStrain analysis, B-mode images of 300 frames at greater than 200 frames/second were used.
# The myocardial ischemia/reperfusion surgical protocol was applied as follows. Mice were anesthetized with 2% isoflurane inhalation until anesthesia was achieved. The animals' body temperature was maintained at 37 °C throughout the surgical procedure using a heating pad. A tracheal tube was placed via tracheal intubation and the respiration rate was set at 150 strokes/min with a tidal volume of 200 μL, using Minivent ventilator for mice (Model 845, Harvard Apparatus). A 1.2 cm incision was made over the left chest. After retraction of the pectoral major and minor muscles, the fourth intercostal space was exposed. […] The left anterior descending coronary artery (LAD) was then located, sutured, and ligated at a site 3-4 mm distal to the origin of the artery under the left atrium using a 6-0 silk suture. The heart was allowed to stabilize for 15 min and right after, ischemia was induced by tightening the suture against a small piece of polyethylene tube. At the end of the 30-minute ischemia period, the ligature was released for the induction of reperfusion, and then the manual evacuation of air and closure of muscle and skin were performed. The mouse was then monitored during the recovery period, which was generally completed within 3 to 5 minutes. Sustain-released buprenorphine (BupSR, 0.5 mg/kg body weight) was provided by subcutaneous injection. Mice were then left to recover until the end of the reperfusion (2 hours, 12 hours, 24 hours, or 4 weeks). The sham group underwent the same surgical procedure except that the LAD was not occluded.
# To explore whether KLF5 inhibition holds therapeutic potential against myocardial I/R injury, WT mice were subjected to 30 minutes of ischemia, followed by 24 hours of reperfusion while being treated with a pharmacological KLF5 inhibitor, namely ML264. ML264 (25 mg/kg/12 h) was dissolved in 10% DMSO, 10% Tween 80, and 80% normal saline, and was administered by intraperitoneal injection in mice.
# A first dose of ML264 was administered five minutes before the reopening of the coronary artery, due to the clinical application that this time point holds, as well as previous reports about the importance of this time point regarding the pharmacological possibilities for the cardioprotection against I/R injury. 2D echocardiography was performed after 24 hours of reperfusion.
# Col1a1 = Col1a1 mRNA in chronic model of I/R injury (real-time PCR); format: in vivo, mouse (C57BL/6); details: 4 weeks post-I/R; vs IR group treated with vehicle
# Method: (§2) The myocardial ischemia/reperfusion surgical protocol was applied as follows. Mice were anesthetized with 2% isoflurane inhalation until anesthesia was achieved. The animals' body temperature was maintained at 37 °C throughout the surgical procedure using a heating pad. A tracheal tube was placed via tracheal intubation and the respiration rate was set at 150 strokes/min with a tidal volume of 200 μL, using Minivent ventilator for mice (Model 845, Harvard Apparatus). A 1.2 cm incision was made over the left chest. After retraction of the pectoral major and minor muscles, the fourth intercostal space was exposed. […] The mouse was then monitored during the recovery period, which was generally completed within 3 to 5 minutes. […]
# (§3) Total RNA was purified from heart tissue using the TRIzol reagent according to the instructions of the manufacturer (ThermoFischer Scientific, Cat. No.: 15596018). cDNA synthesis was performed using the Applied Biosystems High Capacity cDNA Reverse Transcription Kit (ThermoFischer Scientific, Cat. No.: 4368814) from 500 ng RNA, which had been treated with DNAase I (ThermoFischer Scientific, Cat. No.: 18068015). Quantitative real-time PCR was performed with the SYBR Select Master Mix (ThermoFischer Scientific, Cat. No.: 4472903) using the manufacturer's recommendations. […]
# NOX4 = NOX4 protein in myocardium after I/R (Western blot); format: in vivo, mouse (C57BL/6); details: ML264 treatment, 30 min ischemia, 2 h reperfusion
# Method: as §1, with “suture.” for “suture. The heart was allowed to stabilize for 15 min and right after, ischemia was induced by tightening the suture against a small piece of polyethylene tube.”
# Isolated myocardial tissue/isolated primary murine cardiomyocytes were homogenized in radioimmunoprecipitation assay buffer (RIPA buffer) containing protease and phosphatase inhibitors (Thermo Fischer Scientific, Cat. No.: A32959). […] Relative densitometry was determined, and the β-actin protein was used as a loading control.
# In order to unravel the mechanisms of KLF5-mediated cardiotoxicity, oxidative stress levels were evaluated at early reperfusion. […]
# Glut4 = Glut4 mRNA after I/R; format: in vivo, mouse; details: ML-264 treatment; vs I/R group treated with vehicle
# Method: as §2, §3
compound,measurement,setting,value
CN(C(=O)CNC(=O)/C=C/c1cccc(Cl)c1)C1CCS(=O)(=O)CC1 [ML264],KLF5 protein expression in cardiac tissue,KLF5,suppression was confirmed
same,global circumferential strain,[1],significant increase
same,lateral wall circumferential strain,[1],significant increase
same,lateral wall circumferential strain rate,[1],significant increase
same,lateral wall radial strain,[1],significant increase
same,lateral wall radial strain rate,[1],significant increase
same,mRNA levels of Col1a1,Col1a1,decreased
same,NOX4 protein levels,NOX4,suppressed
same,NOX4 levels,NOX4; FIG. 5C-5E (mRNA and protein),significant suppression
same,Glut4 mRNA levels,Glut4,significant suppression
